Assay results taken from paper PMC10187093, “Synthesis, in silico modelling, and in vitro biological evaluation of substituted pyrazole derivatives as potential anti-skin cancer, anti-tyrosinase, and antioxidant agents” (Journal of Enzyme Inhibition and Medicinal Chemistry, 2023).

How the values were obtained:
SK-MEL-28 [1] = assay: Immunoblotting of apoptosis markers, SK-MEL-28; type: cell-based, human; details: western blot, 48 h, vs untreated
Experimental: Immunoblotting was performed according to standard procedures of the Bio-Rad electrophoresis system (Bio-Rad, Hercules, CA) as described earlier. Briefly, protein extracts were obtained by lysing cells in RIPA buffer containing protease inhibitors, and were resolved by 4–12% polyacrylamide ready mini-PROTEAN TGX gel electrophoresis with sodium dodecyl sulphate (SDS) running buffer. Gels were electrotransferred to 0.45 μm nitrocellulose membranes (Bio-Rad, Hercules, CA) in Tris-glycine (TG) buffer using a Trans-Blot Turbo Transfer Pack according to manufacturer’s instructions. Membranes were incubated for 1 h in 5–7% non-fat powdered milk dissolved in TBST (Tris-buffered saline containing 0.05% Tween 20) or 5% BSA for phosphorylated proteins, to saturate nonspecific binding sites, followed by an overnight incubation (4 °C) with primary antibodies. Membranes were washed 5× with TBST and treated with suitable HRP-conjugated secondary antibodies (Amersham Life Science Inc., Arlington Height, IL) for another 2 h at room temperature, followed by additional wash steps and chemiluminescence-based detection with the Amersham ECL Prime detection reagent kit and the Bio-Rad Quantity One ChemiDoc™ detection and imaging analysis software systems as described earlier[108]^,[109].

SK-MEL-28 [2] = assay: Scratch wound healing assay, SK-MEL-28; type: cell-based, human; details: 0, ½IC50, IC50, 1½IC50; 48 h; vs untreated control
Experimental: (§1) The scratch wound healing assay was performed to evaluate compound P25’s ability to limit cell migration and scratch wound closure following our previously described protocol. Briefly, cells were seeded in wells of a 24-well plate and incubated to 100% confluent monolayer, following which a sterile 200 µL Gilson pipette tip was used to scratch a straight line across the centre. […] The wounded and re-epithelialisation areas were imaged at 0 h, 24 h, and 48 h using an inverted phase-contrast Olympus IX51 microscope (Olympus America Inc., Center Valley, PA) attached to an Infinity 2 digital camera. Images were processed with an Infinity analysis software version 6.5.6 (Teledyne Lumenera, Ottawa, Canada) and analysed with Adobe Photoshop. The ImageJ software (NIH, Bethesda, MD) was used to measure the migratory area of each treatment group, with results expressed as remaining percentage of unfilled wound surface at 0 h[108].

A431 [3] = assay: Colony formation assay, A431; type: cell-based, human; details: 0, ½IC50, IC50, 1½IC50; 14 days; vs untreated control
Experimental: Cells were then trypsinised, and 1000 viable cells from each treated group were seeded on […] in 10 mL of the medium, and incubated for an additional 14 days before fixation and crystal violet staining, imaging, and colonies assessment as previously described[109]^,[116]. The plates were scanned, and the area of clones was quantified with the free software Image J (Bethesda, MD) (https://imagej.nih.gov/ij/).

[4] = DPPH free radical scavenging assay
Experimental: An initial screen was done of all 25 derivatives at a concentration of 1 mM. […] Methanol was used as the diluent, and 100 µL of DPPH (200 µM; Sigma-Aldrich, St. Louis, MO) was added to each well. […] The scavenging capacity (SC) was calculated as SC% = ((ΔAcontrol – ΔAsample)/ΔAcontrol) × 100%, where ΔAcontrol was the absorbance of the reagent blank, and ΔAsample was the absorbance of the test samples. The control contained all reagents except the compounds, and all tests were performed in triplicate. Quercetin served as a positive control. The DPPH methanolic solution (1 mL) mixed with DMSO (5 µL) served as a negative control.

A431 [5] = assay: Scratch wound healing assay, A431; type: cell-based, human; details: 0, ½IC50, IC50, 1½IC50; 48 h; vs untreated control
Experimental: as §1

mushroom tyrosinase = target: T1, mushroom tyrosinase (Agaricus bisporus, UniProt C7FF04); assay: In vitro mushroom tyrosinase inhibition assay; type: biochemical
T1 construct: purchased Sigma-Aldrich Chemical Company (St. Louis, MO) and MP Biomedicals (Irvine, CA)
T1 sequence (C7FF04 1-392 limits assumed): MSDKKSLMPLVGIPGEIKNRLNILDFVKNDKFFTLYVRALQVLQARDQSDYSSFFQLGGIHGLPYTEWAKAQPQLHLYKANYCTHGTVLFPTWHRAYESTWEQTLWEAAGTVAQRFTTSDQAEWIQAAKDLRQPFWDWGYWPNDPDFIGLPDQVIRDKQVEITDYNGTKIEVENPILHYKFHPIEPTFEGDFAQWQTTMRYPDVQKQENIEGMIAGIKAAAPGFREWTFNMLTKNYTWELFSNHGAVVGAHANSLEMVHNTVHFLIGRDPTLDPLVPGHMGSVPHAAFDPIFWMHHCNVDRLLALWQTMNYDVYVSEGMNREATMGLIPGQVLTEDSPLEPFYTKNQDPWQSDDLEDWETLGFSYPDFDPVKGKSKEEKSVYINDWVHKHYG
Experimental: The anti-tyrosinase potential of all the synthesised derivatives was determined by an enzymatic tyrosinase inhibition assay based on their ability to inhibit the substrate, L-tyrosine, from binding to the tyrosinase enzyme. […] Test samples were dissolved in DMSO at a concentration of 10 mM and then diluted to different concentrations with phosphate buffer (0.1 M, pH 6.8). Each well contained 40 µL of the sample with 80 µL of phosphate buffer solution (0.1 M, pH 6.8), 40 µL of tyrosinase enzyme (100 units/mL), and 40 µL L-tyrosine (2.5 mM). The mixture was incubated for 30 min at room temperature, and absorbance was measured at 490 nm. Each sample was accompanied by a sample blank containing all components except tyrosinase. […] The percentage of tyrosinase inhibition was calculated as follows: ((ΔAcontrol – ΔAsample)/ΔAcontrol) × 100. IC50 values denoted the sample concentration required to inhibit 50% tyrosinase activity (Table S1).

A375 = assay: MTT antiproliferative/cytotoxicity assay, A375; type: cell-based, human; details: Homo sapiens, A-375, 48 h, melanoma, MTT, 48 h; read-out: IC50 A375
Experimental: Human-derived GFP-expressing melanoma A375 and epidermoid carcinoma A431 cell lines were purchased from Angio-Proteomie (Boston, MA). Human melanoma carcinoma SK-MEL-28 and human immortalised keratinocytes (HaCaT) cell lines were acquired from American Type Culture Collection (ATCC; Manassas, VA). Human cutaneous SCC cell line SCC-12[192] was generously provided by Dr. James G. Rheinwald to Dr. Tatiana Efimova. Except SK-MEL-28, which was cultured in an RPMI-1640 medium supplemented with 5% FBS, all other human immortalised cell lines were grown and maintained in DMEM containing varying percentages of FBS; 5% FBS for A431, SCC-12, and HaCaT lines, and 10% FBS for A375. All culture media were routinely supplemented with 1% PEST 100X (100 U/mL penicillin, 100 μg/mL streptomycin), and cells were cultured in incubators maintained at 37 °C under an atmosphere of 95% humidity, 20% O2, and 5% CO2. The growth media of incubated cells were changed every 2–3 days until they attained 70–80% confluence, after which they were sub-cultured for experiments and re-passaging. DMSO was used as the vehicle to prepare a 10 mM stock solution of the test compounds.
Stock solutions (10 mM) were prepared by dissolving each compound to be screened in DMSO. From these stock solutions, escalating concentrations were prepared using the corresponding cell growth media as a diluent, and the cells (65–75% confluent) were treated with (0–40 µM) or without the drug in sext- to octuplicate and incubated for 48 h. All treatment protocols and controls were prepared as previously described.
The potency and cytotoxicity of the test compounds against two cutaneous melanoma (A375 and SK-MEL-28) and two non-melanoma (A431 and SCC-12) SC cell lines in addition to a control immortalised normal human epidermal keratinocytes (HaCaT) cell line were assessed by MTT assay as previously described.

O=C1CC(c2ccccc2)=NN1c1ccc(Br)cc1 [P25]
activated caspase-3, caspase-9 and cleaved PARP levels, SK-MEL-28 (SK-MEL-28 [1]; concentration-dependent): substantially increased levels
anti-apoptotic Bcl-2 protein levels, SK-MEL-28 (SK-MEL-28 [1]): corresponding decreases
pro-apoptotic Bax expression, SK-MEL-28 (SK-MEL-28 [1]): dose-dependent amplified expression
scratch wound closure / migration, SK-MEL-28 (SK-MEL-28 [2]): significantly and dose-dependently decreased the scratch wound areas
colony formation, A431 (A431 [3]): significant concentration-dependent reductions in the relative percentage of colonies formed
Percent Scavenging (DPPH) ([4]; 1 mM): 77.30%
IC50 ([4]; N.A. = No Activity, > 1000 = not biologically relevant, read-out: IC50 Value, DPPH antioxidant activity (Table S4)): 190 µM
scratch wound closure / migration, A431 (A431 [5]): significantly and dose-dependently decreased the scratch wound areas
inhibition at 500 µM (mushroom tyrosinase; 500 µM, single-concentration screen, read-out: % Inhibition of tyrosinase): 21.9%
IC50 (mushroom tyrosinase; > 500 = not biologically relevant, read-out: IC50 Value, mushroom tyrosinase inhibition (Table S1)): > 500 µM
IC50 (A375): 14.3 ± 0.9 µM
